Reference: ChEMBL document CHEMBL1132561, “Identification and characterization of m1 selective muscarinic receptor antagonists1” (J Med Chem, 1999)

What was measured:
[1] = biological target: T1, Muscarinic acetylcholine receptor M2 (Homo sapiens, UniProt P08172); experiment: biochemical; assay type: cell-based, CHO
T1 sequence (P08172 whole entry): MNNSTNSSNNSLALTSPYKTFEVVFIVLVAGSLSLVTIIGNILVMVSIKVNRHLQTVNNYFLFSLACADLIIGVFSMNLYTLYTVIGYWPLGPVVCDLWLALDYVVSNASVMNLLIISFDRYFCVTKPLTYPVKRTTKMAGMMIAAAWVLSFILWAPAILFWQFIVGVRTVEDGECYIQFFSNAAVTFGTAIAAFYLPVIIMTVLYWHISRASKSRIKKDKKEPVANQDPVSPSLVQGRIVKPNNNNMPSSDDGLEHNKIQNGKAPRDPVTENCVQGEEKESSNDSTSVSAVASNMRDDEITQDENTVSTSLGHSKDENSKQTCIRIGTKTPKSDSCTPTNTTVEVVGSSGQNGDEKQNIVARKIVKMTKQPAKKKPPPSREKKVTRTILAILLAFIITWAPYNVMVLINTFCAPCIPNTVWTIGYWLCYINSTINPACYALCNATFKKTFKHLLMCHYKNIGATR
Description: Displacement of [3H]NMS binding to human Muscarinic acetylcholine receptor M2 using membranes from transfected CHO cells

[2] = biological target: T2, Muscarinic acetylcholine receptor M4 (Homo sapiens, UniProt P08173); experiment: biochemical; assay type: cell-based, CHO
T2 sequence (P08173 whole entry): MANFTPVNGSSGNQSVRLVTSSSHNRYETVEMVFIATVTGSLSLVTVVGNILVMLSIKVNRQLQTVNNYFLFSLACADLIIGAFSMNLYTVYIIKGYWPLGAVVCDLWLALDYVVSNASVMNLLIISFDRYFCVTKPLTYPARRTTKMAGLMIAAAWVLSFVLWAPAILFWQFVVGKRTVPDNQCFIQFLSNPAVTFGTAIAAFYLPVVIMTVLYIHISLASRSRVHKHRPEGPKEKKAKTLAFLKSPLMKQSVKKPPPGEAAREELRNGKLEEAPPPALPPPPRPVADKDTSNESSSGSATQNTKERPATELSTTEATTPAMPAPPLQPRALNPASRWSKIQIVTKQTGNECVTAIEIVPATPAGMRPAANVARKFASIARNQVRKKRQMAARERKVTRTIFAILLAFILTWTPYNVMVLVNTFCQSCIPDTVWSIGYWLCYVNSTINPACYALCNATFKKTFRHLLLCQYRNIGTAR
Description: Displacement of [3H]NMS binding to human Muscarinic acetylcholine receptor M4 using membranes from transfected CHO cells

Row | SMILES | IC50 [1] [µM] | IC50 [2] [µM]
1 | CCCCCCOC(=O)[C@H]1CN(CC)CC[C@H]1c1ccccc1 | 0.405 | 0.573
2 | CCCCCCCCOC(=O)C1=C(c2ccccc2)CCN(CC)C1 | 0.0525 | 0.259
3 | CCN1CCC(c2ccccc2)=C(C(=O)OCc2ccccc2)C1 | 0.451 | 0.473
4 | CCN1CC=C(c2ccccc2)C(C(=O)OCCCc2ccccc2)C1 (configuration not stated) | 2.21 | 1.13
5 | CCN1CC=C(c2ccccc2)C(C(=O)OCC(c2ccccc2)c2ccccc2)C1 (configuration not stated) | 0.475 | 4.16
6 | CCCCCCCCOC(=O)C1CN(CC)CC=C1c1ccccc1 (configuration not stated) |  | 1.25
7 | CCN1CC=C(c2ccccc2)C(C(=O)OCc2ccccc2)C1 (configuration not stated) | 0.241 | 0.146
8 | CCN1CCC(c2ccccc2)=C(C(=O)OCCCc2ccccc2)C1 | 1.04 | 1.16
9 | CCN1CCC(c2ccccc2)=C(C(=O)OCC(c2ccccc2)c2ccccc2)C1 | 2.57 | 7.71
